Test system: P12-Ichikawa
Assay: cell viability relative to DMSO control; higher = less cytotoxic
Settings: 48 h
Outline: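 Three leukemia lines were tested: NOMO1 and SEM at 500 cells/well and P12-Ichikawa at 1000 cells/well. Each was adapted for at least four passages in each medium and seeded in 5 μl in 1536-well plates, and library compounds in DMSO were pin-dosed from 47 μM to 0.79 nM in 11 threefold steps. After 48 h at 37°C, CellTiter-Glo One luminescence was read. Viability is a percentage relative to DMSO wells on each plate, with cell-free wells as background.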

[1] = HPLM + 10% dialyzed FBS, 0.000781 µM
[2] = HPLM + 10% dialyzed FBS, 0.00234 µM
[3] = HPLM + 10% dialyzed FBS, 0.00702 µM
[4] = HPLM + 10% dialyzed FBS, 0.0211 µM
[5] = HPLM + 10% dialyzed FBS, 0.0632 µM
[6] = HPLM + 10% dialyzed FBS, 0.19 µM
[7] = HPLM + 10% dialyzed FBS, 0.569 µM
[8] = HPLM + 10% dialyzed FBS, 1.71 µM
[9] = HPLM + 10% dialyzed FBS, 5.12 µM
[10] = HPLM + 10% dialyzed FBS, 15.4 µM
[11] = HPLM + 10% dialyzed FBS, 46.1 µM
[12] = RPMI 5 mM glucose + 10% FBS, 0.000781 µM
[13] = RPMI 5 mM glucose + 10% FBS, 0.00234 µM
[14] = RPMI 5 mM glucose + 10% FBS, 0.00702 µM
[15] = RPMI 5 mM glucose + 10% FBS, 0.0211 µM
[16] = RPMI 5 mM glucose + 10% FBS, 0.0632 µM
[17] = RPMI 5 mM glucose + 10% FBS, 0.19 µM
[18] = RPMI 5 mM glucose + 10% FBS, 0.569 µM
[19] = RPMI 5 mM glucose + 10% FBS, 1.71 µM
[20] = RPMI 5 mM glucose + 10% FBS, 5.12 µM
[21] = RPMI 5 mM glucose + 10% FBS, 15.4 µM
[22] = RPMI 5 mM glucose + 10% FBS, 46.1 µM
[23] = RPMI 5 mM glucose + 10% dialyzed FBS, 0.000781 µM
[24] = RPMI 5 mM glucose + 10% dialyzed FBS, 0.00234 µM
[25] = RPMI 5 mM glucose + 10% dialyzed FBS, 0.00702 µM
[26] = RPMI 5 mM glucose + 10% dialyzed FBS, 0.0211 µM
[27] = RPMI 5 mM glucose + 10% dialyzed FBS, 0.0632 µM
[28] = RPMI 5 mM glucose + 10% dialyzed FBS, 0.19 µM
[29] = RPMI 5 mM glucose + 10% dialyzed FBS, 0.569 µM
[30] = RPMI 5 mM glucose + 10% dialyzed FBS, 1.71 µM
[31] = RPMI 5 mM glucose + 10% dialyzed FBS, 5.12 µM
[32] = RPMI 5 mM glucose + 10% dialyzed FBS, 15.4 µM
[33] = RPMI 5 mM glucose + 10% dialyzed FBS, 46.1 µM

Structure (SMILES)	cell viability [1] [%]	cell viability [2] [%]	cell viability [3] [%]	cell viability [4] [%]	cell viability [5] [%]	cell viability [6] [%]	cell viability [7] [%]	cell viability [8] [%]	cell viability [9] [%]	cell viability [10] [%]	cell viability [11] [%]	cell viability [12] [%]	cell viability [13] [%]	cell viability [14] [%]	cell viability [15] [%]	cell viability [16] [%]	cell viability [17] [%]	cell viability [18] [%]	cell viability [19] [%]	cell viability [20] [%]	cell viability [21] [%]	cell viability [22] [%]	cell viability [23] [%]	cell viability [24] [%]	cell viability [25] [%]	cell viability [26] [%]	cell viability [27] [%]	cell viability [28] [%]	cell viability [29] [%]	cell viability [30] [%]	cell viability [31] [%]	cell viability [32] [%]	cell viability [33] [%]
CCc1c(C(=O)C(N)=O)c2c(OCC(=O)O)cccc2n1Cc1ccccc1	105	112	112	105	107	111	106	111	103	107	99.5	102	101	102	104	105	98.1	96.5	99.4	94.8	93.6	95.3	99.4	107	102	98.4	99.9	94.4	91.8	97.3	92.3	95.8	91.3
OC(=O)\C1=C\N(C2=CC=C(F)C=C2)C3=C(C=C(F)C(=C3)N4CCNCC4)C1=O	121	116	112	124	124	117	114	115	108	103	91	126	118	118	120	117	113	112	121	117	99.1	92.1	119	111	115	115	104	114	111	102	108	91.5	87.2
CC(C)Nc1cc(C(F)(F)F)cc2nc(NC(=O)c3cccnc3)nn12	113	115	117	116	108	107	108	10.1	12.6	14.6	33.5												121	115	113	113	116	114	111	28.2	24.1	24.9	37
O=C1C[C@@H](c2ccc(O)cc2)Oc2cc(O)cc(O)c21	130	119	120	116	119	120	112	110	102	114	121	125	124	119	124	118	129	114	121	107	110	114	120	120	120	122	115	130	120	104	110	110	103
